Measured values as given in US20240238314A1, “TREATMENT OF ESSENTIAL TREMOR” (Sage Therapeutics, Inc., priority 2021, published 2024).
Entries after “also recorded” stand apart in the source; their conditions may differ.

How the values were obtained:
[1] = tested on: individuals with essential tremor; assay: Phase 2 study, Compound 1 60 mg once daily for 28 days: safety and tolerability (TEAEs, dose reduction, discontinuation; Safety Set); assay type: in vivo, human
Experimental: • Incidence of treatment-emergent adverse events (TEAEs). • Safety and tolerability of Compound 1 as assessed by change from baseline in vital signs, electrocardiograms (ECGs), clinical laboratory parameters, and Columbia-Suicide Severity Rating Scale (C-SSRS). • Physician Withdrawal Checklist (PWC-20).
(§1) Participants were randomized to receive Compound 1 60 mg or placebo once daily in the morning on a 1:1 basis. If participants reported a TEAE considered by investigator to be related to Compound 1 and not tolerable, investigator might reduce the dose of Compound 1 from 60 mg in 15 mg decrements (i.e., 60 mg, to 45 mg, to 30 mg), as medically appropriate. If intolerable TEAEs persist at the 30 mg dose, Compound 1 was permanently stopped.
Participants were monitored for safety during the Treatment and Follow-up Periods (through Study Day 45 [±3 days]) including monitoring for AEs/serious AEs (SAEs), routine clinical laboratory assessments, physical examination, vital signs, and ECG, etc.
Safety Set: defined as all participants who received at least one dose of Compound 1. The Safety Set was used to provide descriptive summaries of the safety data.
The safety and tolerability of Compound 1 were evaluated by adverse events, concomitant medication usage, changes from baseline in physical examination, vital signs, clinical laboratory evaluations, and 12-lead ECG. Suicidality was monitored by the C-SSRS. Safety data were listed by subject and by study drug and summarized descriptively. All safety summaries were performed on the Safety Set.
The incidence of adverse events were summarized by system organ class, and preferred term for subjects in Safety Set.

[2] = tested on: individuals with essential tremor; assay: Phase 2 study, Compound 1 60 mg once daily for 28 days: TETRAS ADL total score; assay type: in vivo, human
From the text: As used herein, “The Essential Tremor Rating Assessment Scale (TETRAS) activities of daily living (ADL) subscale total score” refers to an assessment scale for essential tremor developed by The Tremor Research Group (Elble, R. J., J. Neurol. Neuromedicine 1(4):34-38 (2016); Elble, R. J. et. al., Mov. Disord. 27(12); 1567-1569 (2012)). The TETRAS ADL subscale includes 12 metrics or characteristics, wherein each metric or characteristic is scored 0, 1, 2, 3, or 4 based on the severity of the characteristic present in the subject. Scores for each of the 12 characteristics are then added to give a total score of no greater than 48. The 12 characteristics scored in the TETRAS ADL subscale total score include:
Participants were 18 to 80 years of age, inclusive, diagnosed of ET of at least 3 years duration with scores of at least 1.5 for each of the six items that comprised the combined total upper limb TETRAS (total performance subscale part 4) with the total score for the dominant upper limb (the sum of the 3 items for either the right or left upper limb, whichever is dominant) being at least 5.5, at both Screening and predose on Day 1.
as §1
This study included a Screening Period of up to 28 days, a 29-day treatment period consisting of 28 days of dosing with the end of treatment visit intended to be on Day 29 at trough, and a 14-day follow-up period relative to final dose. Study patients were not taking other medications for essential tremor during the 28-day treatment period.
Similarly, an MMRM was be used for the analysis of the following variables: changes from baseline in TETRAS performance subscale part 4, 6, 7, and 8 combined score, and TETRAS ADL score. For each model, the comparison of interest was between Compound 1 tablets and matching placebo at the 15-day time point. Model-based point estimates (i.e., LS means), 95% confidence intervals, and p-values were reported.

[3] = Safety Set, N = 34, listed as Cmpd 1
[4] = Baseline TETRAS ADL < 28, Day 29
[5] = Baseline TETRAS ADL ≥ 28, Day 29

SMILES: COC[C@@]1(O)CC[C@H]2[C@@H](CC[C@@H]3[C@@H]2CC[C@]2(C)[C@@H](C(=O)Cn4nnc(C)n4)CC[C@@H]32)C1 [Compound 1]
- Participants with early discontinuation of the study at 60 mg, number [1]: 5
- Down-titration of dose, percent of patients ([1]; 60 mg down-titrated to 45 mg or 30 mg): 62%
- Early treatment discontinuation, reason Physician Decision, number ([1]; N = 34): 1
- Early treatment discontinuation, reason Physician Decision, percent ([1]; N = 34): 2.9%
- Early treatment discontinuation, reason Subject was lost to follow up, number ([1]; N = 34): 0
- Early treatment discontinuation, reason Withdrawal by Subject, number ([1]; N = 34): 3
- Early treatment discontinuation, reason Withdrawal by Subject, percent ([1]; N = 34): 8.8%
- TEAE Asthenia, number of participants ([1]; Safety Set, N = 34): 1
- TEAE Asthenia, percent of participants ([1]; Safety Set, N = 34): (2.9%)
- TEAE Balance disorder, number of participants ([1]; Safety Set, N = 34): 5
- TEAE Balance disorder, percent of participants ([1]; Safety Set, N = 34): 15%
- TEAE Coordination abnormal, number of participants ([1]; Safety Set, N = 34): 1
- TEAE Coordination abnormal, percent of participants ([1]; Safety Set, N = 34): (2.9%)
- TEAE Diarrhoea, number of participants ([1]; Safety Set, N = 34): 2
- TEAE Diarrhoea, percent of participants ([1]; Safety Set, N = 34): (5.9%)
- TEAE Diplopia, number of participants ([1]; Safety Set, N = 34): 4
- TEAE Diplopia, percent of participants ([1]; Safety Set, N = 34): 12%
- TEAE Disturbance in attention, number of participants ([1]; Safety Set, N = 34): 3
- TEAE Disturbance in attention, percent of participants ([1]; Safety Set, N = 34): (8.8%)
- TEAE Dizziness, number of participants ([1]; Safety Set, N = 34): 13
- TEAE Dizziness, percent of participants ([1]; Safety Set, N = 34): 38%
- TEAE Dysarthria, number of participants ([1]; Safety Set, N = 34): 4
- TEAE Dysarthria, percent of participants ([1]; Safety Set, N = 34): 12%
- TEAE Fatigue, number of participants ([1]; Safety Set, N = 34): 5
- TEAE Fatigue, percent of participants ([1]; Safety Set, N = 34): (14.7%)
- TEAE Gait disturbance, number of participants ([1]; Safety Set, N = 34): 4
- TEAE Gait disturbance, percent of participants ([1]; Safety Set, N = 34): 12%
- TEAE Headache, number of participants ([1]; Safety Set, N = 34): 2
- TEAE Headache, percent of participants ([1]; Safety Set, N = 34): (5.9%)
- TEAE Insomnia, number of participants ([1]; Safety Set, N = 34): 1
- TEAE Insomnia, percent of participants ([1]; Safety Set, N = 34): (2.9%)
- TEAE Irritability, number of participants ([1]; Safety Set, N = 34): 0
- TEAE Lethargy, number of participants ([1]; Safety Set, N = 34): 2
- TEAE Lethargy, percent of participants ([1]; Safety Set, N = 34): (5.9%)
- TEAE Mental status changes, number of participants ([1]; Safety Set, N = 34): 2
- TEAE Mental status changes, percent of participants ([1]; Safety Set, N = 34): (5.9%)
- TEAE Myalgia, number of participants ([1]; Safety Set, N = 34): 0
- TEAE Myoclonus, number of participants ([1]; Safety Set, N = 34): 3
- TEAE Myoclonus, percent of participants ([1]; Safety Set, N = 34): (8.8%)
- TEAE Paraesthesia, number of participants ([1]; Safety Set, N = 34): 2
- TEAE Paraesthesia, percent of participants ([1]; Safety Set, N = 34): (5.9%)
- TEAE Somnolence, number of participants ([1]; Safety Set, N = 34): 23
- TEAE Speech disorder, number of participants ([1]; Safety Set, N = 34): 2
- TEAE Speech disorder, percent of participants ([1]; Safety Set, N = 34): (5.9%)
- TEAE Urinary tract infection, number of participants ([1]; Safety Set, N = 34): 1
- TEAE Urinary tract infection, percent of participants ([1]; Safety Set, N = 34): (2.9%)
- TEAE Balance disorder, percent of participants [1, 3]: (14.7%)
- TEAE Diplopia, percent of participants [1, 3]: (11.8%)
- TEAE Dizziness, percent of participants [1, 3]: (38.2%)
- TEAE Dysarthria, percent of participants [1, 3]: (11.8%)
- TEAE Gait disturbance, percent of participants [1, 3]: (11.8%)
- TEAE Somnolence, percent of participants [1, 3]: (67.6%)
- Discontinuations noted, of patients receiving Compound 1 ([1]; in vivo): 3800
- Participants with early discontinuation of the study at 60 mg, percent ([1]; in vivo): 14.7%
- Severe adverse events (SAEs) reported by one participant, in words ([1]; individual participants of the Compound 1 group): mental status changes; also recorded: dehydration; also recorded: headache; also recorded: transient ischaemic attack
- Early treatment discontinuation due to adverse event (TEAEs leading to treatment discontinuation), number ([1]; of 34): 9
- Early treatment discontinuation due to adverse event (TEAEs leading to treatment discontinuation), percent ([1]; of 34): 26.5%
- Participants reporting TEAEs leading to study discontinuation, number ([1]; of 34): 4
- Participants reporting TEAEs leading to study discontinuation, percent ([1]; of 34): 11.8%
- Participants reporting TEAEs resulting in treatment dose reduction, number ([1]; of 34): 21
- Participants reporting TEAEs resulting in treatment dose reduction, percent ([1]; of 34): 61.8%
- Participants reporting severe TEAEs, number ([1]; of 34): 11
- Participants reporting severe TEAEs, percent ([1]; of 34): 32.4%
- Participants reporting treatment-emergent adverse events (TEAEs), number ([1]; of 34): 33
- Participants reporting treatment-emergent adverse events (TEAEs), percent ([1]; of 34): 97.1%
- Participants who completed the study at 60 mg dose, number ([1]; of 34): 8
- Participants who completed the study at 60 mg dose, percent ([1]; of 34): 23.5%
- Participants who had dose reduced to 30 mg from 60 mg directly, number ([1]; of 34): 2
- Participants who had dose reduced to 30 mg from 60 mg directly, percent ([1]; of 34): 5.9%
- Participants who had dose reduced to 45 mg, number ([1]; of 34): 19
- Participants who had dose reduced to 45 mg, percent ([1]; of 34): 55.9%
- LSMean (SE) CFB in TETRAS ADL total score [2, 4]: −2.84
- LSMean Difference (CI) vs placebo in CFB in TETRAS ADL total score [2, 4]: −1.17
- Mean (SD) % CFB in TETRAS ADL total score [2, 4]: −16.52%
- LSMean (SE) CFB in TETRAS ADL total score [2, 5]: −5.67
- Mean (SD) % CFB in TETRAS ADL total score [2, 5]: −18.10%
- Model-based LSMean (SE) change from baseline in TETRAS ADL total score ([2]; Full Analysis Set, Day 8): −5.34 (0.845)
- LSMean difference vs placebo in change from baseline in TETRAS ADL total score ([2]; Full Analysis Set, Day 15): −2.95
- Model-based LSMean (SE) change from baseline in TETRAS ADL total score ([2]; Full Analysis Set, Day 15): −5.43 (0.945)
- LSMean difference vs placebo in change from baseline in TETRAS ADL total score ([2]; Full Analysis Set, Day 22): −2.56
- Model-based LSMean (SE) change from baseline in TETRAS ADL total score ([2]; Full Analysis Set, Day 22): −5.24 (0.904)
- Mean (SD) % CFB in TETRAS ADL total score ([2]; Full Analysis Set, Day 29): −17.4%
- Model-based LSMean (SE) change from baseline in TETRAS ADL total score ([2]; Full Analysis Set, Day 29): −4.24 (0.940)
- LSMean difference vs placebo in change from baseline in TETRAS ADL total score ([2]; Full Analysis Set, Day 29, listed as Cmpd 1): −1.37
- LSMean difference vs placebo in change from baseline in TETRAS ADL total score ([2]; Full Analysis Set, Day 42): 1.13
- Model-based LSMean (SE) change from baseline in TETRAS ADL total score ([2]; Full Analysis Set, Day 42): −2.14 (0.905)
